Measurements published in ChEMBL document CHEMBL3887007, “Estra-1,3,5(10),16-tetraene-3-carboxamide derivatives, processes for their preparation, pharmaceutical preparations comprising them and their use for preparing medicaments” (2016).
“And” between values parts separate entries of the source, which are not always exact repeats. Equal values may be shown once.

Molecular target: T1, Aldo-keto reductase family 1 member C3 (Homo sapiens, UniProt P42330)
T1 sequence (P42330 whole entry): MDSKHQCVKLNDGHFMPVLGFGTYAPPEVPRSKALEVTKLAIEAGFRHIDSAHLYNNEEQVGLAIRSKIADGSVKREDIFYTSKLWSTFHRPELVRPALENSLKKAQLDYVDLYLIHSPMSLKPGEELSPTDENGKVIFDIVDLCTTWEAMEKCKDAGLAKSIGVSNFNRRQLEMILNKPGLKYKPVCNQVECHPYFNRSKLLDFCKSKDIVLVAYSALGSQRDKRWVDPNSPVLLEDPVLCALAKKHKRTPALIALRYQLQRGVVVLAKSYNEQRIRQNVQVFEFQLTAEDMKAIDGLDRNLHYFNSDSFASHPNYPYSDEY
Test: Inhibitory Activity Assay: Essentially, the enzyme activity is measured by quantification of the Coumberol from Coumberone (Halim, M., Yee, D. J., and Sames, D., J. AM. CHEM. SOC. 130, 14123-14128 (2008) and Yee, D. J., Balsanek, V., Bauman, D. R., Penning, T. M., and Sames, D., Proc. Natl. Acad. Sci. USA 103, 13304-13309 (2006)). In this test, the increase of the highly fluorescent Coumberol by NADPH⿿(nicotinamide adenine dinucleotide phosphate)-dependent reduction of the non-fluorescent Coumberone by AKR1C3 can be determined.The enzyme used was recombinant human AKR1C3 (Aldo-keto reductase family 1 member C3) (GenBank Accession No. NM_003739). This was expressed in E. coli as GST (glutathione S transferase) fusion protein and purified by glutathione Sepharose affinity chromatography. The GST was removed by digestion with thrombin and subsequent size exclusion chromatography (Dufort, I., Rheault, P., Huang, X F., Soucy, P., and Luu-The, V., Endocrinology 140, 568-574 (1999)). […]

For `C[C@]12CC[C@@H]3c4ccc(C(=O)NCC5(C(=O)O)CC5)cc4CC[C@H]3[C@@H]1CC=C2c1cncc(F)c1`, the IC50 was 9.2 nM and 10.2 nM.
